SMILES strings stand for the structures. Converted amounts (≈) assume the structure as drawn. Where two headings read alike, the source gives them in different places.

The subject of data set [1] is T. foetus. The data set can be described thus: In vitro antiprotozoal activity against T. foetus. The conditions noted are these: Tritrichomonas foetus, read-out: Activity IC50 T. foetus. Format: cell-based. The text has this: (§1) Several 5-nitroimidazoles have been tested for in vitro antiprotozoal activity against T. foetus, T. vaginalis, and G. lamblia.
Data set [2] concerns T. vaginalis. Put plainly: In vitro antiprotozoal activity against T. vaginalis. It counts as cell-based. The conditions noted are these: Trichomonas vaginalis, read-out: Activity IC50 T. vaginalis.
Source text: as §1

Data set [3] deals with G. lamblia. Put plainly: In vitro antiprotozoal activity against G. lamblia. Format: cell-based. Particulars: Giardia duodenalis, read-out: Activity IC50 G. lamblia.
Source text: as §1

Data set [4] has as its system Mammalian rat hepatocyte. The data set can be described thus: DNA single strand breaks in mammalian rat hepatocytes (genotoxicity). The conditions noted are these: % relative to parent compound not containing 4-substituent.
Source text: as §1
^b Mammalian rat hepatocyte single strand DNA breaks expressed as %
relative to parent compound not containing 4substituent.

The test system of data set [5] is protozoa and bacteria. Particulars: U.S. Pat. No. 3,646,027; cited from earlier work.
The conditions of data set [6]: background; cited from earlier work.
The conditions of data set [7]: background; cited from earlier work. The source holds these as a separate data set.

In the case of `Cc1nc(CCO)c([N+](=O)[O-])n1C` [Compound V], the concentration for half-maximal inhibition (IC50) in data set [1] (in vitro, T. foetus) was 5.25 µg/mL (≈ 28.4 µM); in data set [2] (in vitro, T. vaginalis), 9 µg/mL (≈ 48.6 µM); in data set [3] (in vitro, G. lamblia) it was 25 µg/mL (≈ 135 µM).
Consider `Cc1nc(COC(N)=O)n(C)c1[N+](=O)[O-]` [III, (1,4-Dimethyl-5-nitroimidazol-2-yl)methylcarbamate], for which the IC50 came out at 1 µg/mL (≈ 4.67 µM) in data set [1] (in vitro, T. foetus); 1.9 µg/mL (≈ 8.87 µM) in data set [2] (in vitro, T. vaginalis); 25 µg/mL (≈ 117 µM) in data set [3] (in vitro, G. lamblia). For the same compound, the “Extent of DNA Damage” value in data set [4] is recorded as 6%.
Consider `Cc1ncc([N+](=O)[O-])n1CCO` [II], for which the concentration for half-maximal inhibition (IC50) in data set [1] (in vitro, T. foetus) was found to be 0.43 µg/mL (≈ 2.51 µM); in data set [2] (in vitro, T. vaginalis), 0.58 µg/mL (≈ 3.39 µM); in data set [3] (in vitro, G. lamblia), 2 µg/mL (≈ 11.7 µM). In data set [4], the “Extent of DNA Damage” value was 100%.
Consider `Cc1nc(CCO)n(C)c1[N+](=O)[O-]` [IV, 1,4-Dimethyl-2-(2-hydroxyethyl)-5-nitroimidazole], for which the half-maximal inhibitory concentration (IC50) came out at 1.9 µg/mL (≈ 10.3 µM) in data set [1] (in vitro, T. foetus); 12.5 µg/mL (≈ 67.5 µM) in data set [2] (in vitro, T. vaginalis); 25 µg/mL (≈ 135 µM) in data set [3] (in vitro, G. lamblia).
Consider `Cn1c([N+](=O)[O-])cnc1COC(N)=O` [I], for which the half-maximal inhibitory concentration (IC50) is 0.42 µg/mL (≈ 2.1 µM) in data set [1], 0.54 µg/mL (≈ 2.7 µM) in data set [2] and 0.9 µg/mL (≈ 4.5 µM) in data set [3]. For the same compound, the “Extent of DNA Damage” value in data set [4] was determined as 100%. In data set [5], the “activity against protozoa and bacteria” value is “potent”. The “mutagenicity” value in data set [6] is “strong mutagenicity”. In addition, the “drug residual levels” value in data set [7] is reported as “high drug residual levels”.

By IC50 is commonly meant the concentration needed to halve the response being measured.

Source of the values: US4678799A, “1,2(1,4)-dimethyl-4(2)-(2-hydroxyethyl)-5-nitro-imidazole antiprotozoal agents with reduced mutagenicity” (Merck & Co., Inc., priority 1984, dated 1987).
